What was measured:
subjects with TRD [1] = experiment: Modified Observer's Assessment of Alertness/Sedation (MOAA/S)
Procedure: (§1) The Investigational Medicinal Product (IMP) R(−)-ketamine hydrochloride in sterile water for intravenous injection was investigated as an […] treatment of TRD. The International Union of Pure and Applied Chemistry (IUPAC) name is of the IMP is (2R)-2-(2-chlorophenyl)-2-(methylamino)cyclohexan-1-one. Subjects received the solution at either 30 mg or 60 mg dose, or a placebo. The IMP or placebo was administered on Day 1 as a single IV infusion via an electronic infusion pump over 40 minutes. The duration of study participation for each subject was up to 29 days including a screening period, a 3-day in-clinic visit, and 2 follow-up visits. 101 subjects were enrolled in approximately 20 study centers in the EU and the US.
The MOAA/S will were to determine if R(−)-ketamine causes the side effect of sedation and to what degree. Sedation was evaluated by the study staff using the MOAA/S. The observer recorded the subject's alertness pre-dose, every 20 minutes for first 2 hours post-dose, and at 4 and 6 hours after the start of the infusion.

subjects with TRD [2] = experiment: Clinician-Administered Dissociative States Scale (CADSS)
Procedure: as §1
The CADSS was to assess the alertness or dissociative state of subjects administered R(−)-ketamine. The study staff evaluated the subject's degree of dissociation by administering the CADSS questionnaire pre-dose; at 40 minutes post-dose (at EoI); and at 2 and 4 hours post-dose.

In the case of `CN[C@@]1(c2ccccc2Cl)CCCCC1=O.Cl` [R(−)-ketamine, (2R)-2-(2-chlorophenyl)-2-(methylamino)cyclohexan-1-one], the “Subjects with post-baseline MOASS <5, number” value (subjects with TRD [1]; 30 mg (n = 33)) is reported as 9 n, the “Subjects with post-baseline MOASS <5, percent” value (subjects with TRD [1]; 30 mg (n = 33)) is reported as “(27.3) %” and the “Subjects with post-baseline MOASS <5, number” value (subjects with TRD [1]; 60 mg (n = 35)) is reported as 12 n. The “Subjects with post-baseline MOASS <5, percent” value (subjects with TRD [1]; 60 mg (n = 35)) was “(34.3) %”, the “Subjects with post-baseline CADSS >4 and change from baseline >0, number” value (subjects with TRD [2]; 30 mg (n = 33)) was 12 n and the “Subjects with post-baseline CADSS >4 and change from baseline >0, percent” value (subjects with TRD [2]; 30 mg (n = 33)) was “(36.4) %”. For the same molecule, the “Subjects with post-baseline CADSS >4 and change from baseline >0, number” value (subjects with TRD [2]; 60 mg (n = 35)) was 8 n and the “Subjects with post-baseline CADSS >4 and change from baseline >0, percent” value (subjects with TRD [2]; 60 mg (n = 35)) was “(22.9) %”.

— patent US20260027068A1, “METHODS OF ADM[…]-KETAMINE” (Perception Neuroscience, Inc., priority 2022, published 2026)
